Legend:
[1] = target: T1, rat P2X3 receptor (Rattus norvegicus, UniProt P49654); assay: P2X3 FLIPR (Fluorometric Imaging Plate Reader) assay; type: cell-based; conditions: CHO-K1 cells transfected with rat P2X3; agonist α,β-meATP 1 μM; FLIPR calcium fluorescence; read-out: pKi P2X3 (converted)
T1 construct: expressed in transfected cells; host or cells: CHO-K1
T1 sequence (P49654 1-397): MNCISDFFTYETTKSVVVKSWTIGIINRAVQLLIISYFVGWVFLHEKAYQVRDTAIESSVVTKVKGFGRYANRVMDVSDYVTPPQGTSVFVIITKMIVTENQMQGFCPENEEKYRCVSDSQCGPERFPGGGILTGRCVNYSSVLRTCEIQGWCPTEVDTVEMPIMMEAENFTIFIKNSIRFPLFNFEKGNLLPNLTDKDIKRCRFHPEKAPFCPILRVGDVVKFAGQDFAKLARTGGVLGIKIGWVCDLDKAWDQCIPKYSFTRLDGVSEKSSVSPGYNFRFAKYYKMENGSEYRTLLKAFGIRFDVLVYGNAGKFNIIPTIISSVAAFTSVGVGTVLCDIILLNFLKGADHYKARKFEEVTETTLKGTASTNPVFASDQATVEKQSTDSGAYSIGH
Description: (§1) CHO-K1 cells were transfected with cloned rat P2X3 or human P2X2/3 receptor subunits and passaged in flasks. 18-24 hours before the FLIPR experiment, cells were released from their flasks, centrifuged, and resuspended in nutrient medium at 2.5×10^5 cells/ml. The cells were aliquoted into black-walled 96-well plates at a density of 50,000 cells/well and incubated overnight in 5% CO2 at 37° C. On the day of the experiment, cells were washed in FLIPR buffer (calcium- and magnesium-free Hank's balanced salt solution, 10 mM HEPES, 2 mM CaCl2, 2.5 mM probenecid; FB). Each well received 100 μl FB and 100 μl of the fluorescent dye Fluo-3 AM [2 μM final conc.]. After a 1 hour dye loading incubation at 37° C., the cells were washed 4 times with FB, and a final 75 μl/well FB was left in each well.
(§2) Test compounds (dissolved in DMSO at 10 mM and serially diluted with FB) or vehicle were added to each well (25 μl of a 4× solution) and allowed to equilibrate for 20 minutes at room temperature. The plates were then placed in the FLIPR and a baseline fluorescence measurement (excitation at 488 nm and emission at 510-570 nm) was obtained for 10 seconds before a 100 μl/well agonist or vehicle addition. The agonist was a 2× solution of α,β-meATP producing a final concentration of 1 μM (P2X3) or 5 μM (P2X2/3). Fluorescence was measured for an additional 2 minutes at 1 second intervals after agonist addition. A final addition of ionomycin (5 μM, final concentration) was made to each well of the FLIPR test plate to establish cell viability and maximum fluorescence of dye-bound cytosolic calcium. Peak fluorescence in response to the addition of α,β-meATP (in the absence and presence of test compounds) was measured and inhibition curves generated using nonlinear regression. PPADS, a standard P2X antagonist, was used as a positive control.

[2] = target: T2, human P2X2/3 receptor (Homo sapiens, UniProt P56373+Q9UBL9); assay: P2X2/3 FLIPR (Fluorometric Imaging Plate Reader) assay; type: cell-based; conditions: CHO-K1 cells transfected with human P2X2/3; agonist α,β-meATP 5 μM; FLIPR calcium fluorescence; read-out: pKi P2X2/3 (converted)
T2 construct: expressed in transfected cells; host or cells: CHO-K1
T2 sequence (Q9UBL9 1-471): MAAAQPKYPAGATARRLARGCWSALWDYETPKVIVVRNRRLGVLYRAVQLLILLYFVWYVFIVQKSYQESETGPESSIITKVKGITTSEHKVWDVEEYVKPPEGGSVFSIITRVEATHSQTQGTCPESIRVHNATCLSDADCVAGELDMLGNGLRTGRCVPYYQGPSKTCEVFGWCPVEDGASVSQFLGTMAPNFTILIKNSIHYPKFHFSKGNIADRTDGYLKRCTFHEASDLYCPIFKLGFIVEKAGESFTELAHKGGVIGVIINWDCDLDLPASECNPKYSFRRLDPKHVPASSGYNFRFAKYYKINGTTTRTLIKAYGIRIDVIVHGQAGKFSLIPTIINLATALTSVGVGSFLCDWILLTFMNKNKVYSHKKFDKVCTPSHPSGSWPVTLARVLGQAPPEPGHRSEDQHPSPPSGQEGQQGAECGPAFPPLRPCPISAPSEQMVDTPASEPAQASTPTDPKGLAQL
T2 sequence (P56373 1-397): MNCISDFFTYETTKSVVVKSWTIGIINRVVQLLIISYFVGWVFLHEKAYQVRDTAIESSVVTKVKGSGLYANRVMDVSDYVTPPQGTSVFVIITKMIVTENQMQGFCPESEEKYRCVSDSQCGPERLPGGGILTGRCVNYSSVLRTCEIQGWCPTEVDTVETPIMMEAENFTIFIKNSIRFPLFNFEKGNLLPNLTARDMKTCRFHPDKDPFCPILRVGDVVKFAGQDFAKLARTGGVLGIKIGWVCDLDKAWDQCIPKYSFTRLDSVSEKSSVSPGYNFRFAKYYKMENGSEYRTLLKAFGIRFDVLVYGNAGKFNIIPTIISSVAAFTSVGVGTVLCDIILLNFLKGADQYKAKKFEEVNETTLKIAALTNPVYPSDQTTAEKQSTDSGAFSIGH
Description: as §1, §2

| SMILES | Ki [1] | Ki [2] |
| --- | --- | --- |
| COC[C@@H](C)NC(=O)c1cc(-c2ccc(C)cn2)cc(N2C(=O)OC[C@H]2C(C)C)c1 [Compound 7, 3-((R)-4-Isopropyl-2-oxo-oxazolidin-3-yl)-N-((R)-2-methoxy-1-methyl-ethyl)-5-(5-methyl-pyridin-2-yl)-benzamide] | 5.25 nM | 562 nM |
| Cc1ccc(-c2cc(C(=O)NCc3cnc(C)cn3)cc(N3C(=O)Cc4ccccc43)c2)nc1 [Compound 5, N-(5-Methyl-pyrazin-2-ylmethyl)-3-(5-methyl-pyridin-2-yl)-5-(2-oxo-2,3-dihydro-indol-1-yl)-benzamide] | 8.91 nM | 89.1 nM |
| Cc1ccc(-c2cc(C(=O)NCc3ncc(C)cn3)cc(-n3c(=O)oc4ccccc43)c2)nc1 [Compound 32, 3-(5-Methyl-pyridin-2-yl)-N-(5-methyl-pyrimidin-2-ylmethyl)-5-(2-oxo-benzooxazol-3-yl)-benzamide] | 4.57 nM | 24.5 nM |
| Cc1ccc(-c2cc(C(=O)NCc3cnc(C)cn3)cc(-n3c(=O)oc4ccccc43)c2)nc1 [Compound 1, N-(5-Methyl-pyrazin-2-ylmethyl)-3-(5-methyl-pyridin-2-yl)-5-(2-oxo-benzooxazol-3-yl)-benzamide] | 7.94 nM | 28.8 nM |
| Cc1ccc(-c2cc(C(=O)NCc3cccnn3)cc(-n3c(=O)oc4ccccc43)c2)nc1 [Compound 14, 3-(5-Methyl-pyridin-2-yl)-5-(2-oxo-benzooxazol-3-yl)-N-pyridazin-3-ylmethyl-benzamide] | 8.51 nM | 263 nM |
| Cc1ccc(-c2cc(C(=O)NC(C)c3cnccn3)cc(N3C(=O)OC[C@@H]3C(C)C)c2)cc1 (stereo partly drawn) [Compound 45, 5-((S)-4-Isopropyl-2-oxo-oxazolidin-3-yl)-4′-methyl-biphenyl-3-carboxylic acid (1-pyrazin-2-yl-ethyl)-amide] | 263 nM | 7590 nM |
| Cc1ccc(-c2cc(C(=O)NCc3cnc(C)cn3)cc(N3C(=O)OC[C@H]3C(C)C)c2)c(F)c1 [Compound 48, 2′-Fluoro-5-((R)-4-isopropyl-2-oxo-oxazolidin-3-yl)-4′-methyl-biphenyl-3-carboxylic acid (5-methyl-pyrazin-2-ylmethyl)-amide] | 13.2 nM | 38 nM |

Further lines, results first:

| Ki [1] | Ki [2] | SMILES |
| --- | --- | --- |
| 2.24 nM | 195 nM | Cc1ccc(-c2cc(C(=O)N[C@@H](C)CO)cc(N3C(=O)OC[C@H]3C(C)C)c2)nc1 [Compound 9, N-((S)-2-Hydroxy-1-methyl-ethyl)-3-((R)-4-isopropyl-2-oxo-oxazolidin-3-yl)-5-(5-methyl-pyridin-2-yl)-benzamide] |
| 4.07 nM | 191 nM | Cc1ccc(-c2cc(C(=O)NC(C)c3cnccn3)cc(-n3c(=O)[nH]c4ccccc43)c2)nc1 (centres unmarked) [Compound 4, 3-(5-Methyl-pyridin-2-yl)-5-(2-oxo-2,3-dihydro-benzoimidazol-1-yl)-N-(1-pyrazin-2-yl-ethyl)-benzamide] |
| 6.17 nM | 13.8 nM | Cc1ccc(-c2cc(C(=O)NCc3cnc(C)nc3)cc(-n3c(=O)oc4ccccc43)c2)nc1 [Compound 33, 3-(5-Methyl-pyridin-2-yl)-N-(2-methyl-pyrimidin-5-ylmethyl)-5-(2-oxo-benzooxazol-3-yl)-benzamide] |
| 11 nM | 31.6 nM | Cc1ccc(-c2cc(C(=O)NCc3cnc(C)cn3)cc(-n3c(=O)oc4ccccc43)c2)cc1 [Compound 51, 4′-Methyl-5-(2-oxo-benzooxazol-3-yl)-biphenyl-3-carboxylic acid (5-methyl-pyrazin-2-ylmethyl)-amide] |
| 8.91 nM | 123 nM | Cc1ccc(-c2cc(C(=O)NC3CC3)cc(N3C(=O)OC[C@H]3C(C)C)c2)c(F)c1 [Compound 49, 2′-Fluoro-5-((R)-4-isopropyl-2-oxo-oxazolidin-3-yl)-4′-methyl-biphenyl-3-carboxylic acid cyclopropylamide] |
| 7.41 nM | 117 nM | Cc1ccc(-c2cc(C(=O)NC(C)c3cnccn3)cc(N3C(=O)Cc4ccccc43)c2)nc1 (centres unmarked) [Compound 6, 3-(5-Methyl-pyridin-2-yl)-5-(2-oxo-2,3-dihydro-indol-1-yl)-N-(1-pyrazin-2-yl-ethyl)-benzamide] |
